Literature values in patent publication US5413915A (priority 1991, dated 1995).
Marks after values point to notes of the source that are not given here.

How the values were obtained:
Salmonella typhimurium = details: cited from earlier work
[1] = in vivo; cited from earlier work
[2] = in vivo; cited from earlier work; remark: listed apart in the source

BrCCBr [1,2-Dibromoethane]
Mutagenicity (Salmonella typhimurium): +
Tumorigen Activity [1]: +
Teratogen Activity [2]: -

CCCCO [1-Butanol]
Mutagenicity (Salmonella typhimurium): -
Tumorigen Activity [1]: -
Teratogen Activity [2]: -

O=C(O)COc1ccc(Cl)cc1Cl [2,4-D]
Mutagenicity (Salmonella typhimurium): -
Tumorigen Activity, assignment based on IARC reports [1]: +
Tumorigen Activity, assignment based on NCI/NTP carcinogenesis bioassay results [1]: -
Teratogen Activity [2]: +

CC(C)O [2-Propanol]
Mutagenicity (Salmonella typhimurium): -
Tumorigen Activity [1]: -
Tumorigen Activity, assignment based on IARC reports [1]: +
Teratogen Activity [2]: -

O=c1cc(-c2ccccc2)oc2ccc3ccccc3c12 [5,6-Naphthoflavone]
Mutagenicity (Salmonella typhimurium): -
Tumorigen Activity [1]: -
Teratogen Activity [2]: -

CCc1cccc(CC)c1N(COC)C(=O)CCl [Alachlor (ind.), Alachlor]
Mutagenicity (Salmonella typhimurium): -
Tumorigen Activity [1]: -
Teratogen Activity [2]: -

O=C1O[C@H]([C@@H](O)CO)C(O)=C1O [Ascorbate]
Mutagenicity (Salmonella typhimurium): +
Carcinogenic Status [1]: Negative
Tumorigen Activity [1]: -
Teratogen Activity [2]: +

CCC1(CC)C(=O)NC(=O)NC1=O [Barbital]
Mutagenicity (Salmonella typhimurium): -
Tumorigen Activity [1]: -
Teratogen Activity [2]: -

ClC(Cl)Cl [CHCl3]
Mutagenicity (Salmonella typhimurium): +
Tumorigen Activity [1]: +
Teratogen Activity [2]: +

S=C=S [CS2]
Mutagenicity (Salmonella typhimurium): +
Tumorigen Activity [1]: -
Teratogen Activity [2]: +

CNC(=O)Oc1cccc2ccccc12 [Carbaryl (ind.), Carbaryl]
Tumorigen Activity [1]: +
Teratogen Activity [2]: +

CNC(=O)Oc1cccc2c1OC(C)(C)C2 [Carbofuran (ind.), Carbofuran]
Mutagenicity (Salmonella typhimurium): +
Tumorigen Activity [1]: -
Teratogen Activity [2]: -

O=C(O)CC(O)(CC(=O)O)C(=O)O [Citrate]
Tumorigen Activity [1]: -
Teratogen Activity [2]: -

CCNc1nc(Cl)nc(NC(C)(C)C#N)n1 [Cyanazine (ind.), Cyanazine]
Mutagenicity (Salmonella typhimurium): +
Tumorigen Activity [1]: -
Teratogen Activity [2]: -

COc1c(Cl)ccc(Cl)c1C(=O)O [Dicamba (ind.), Dicamba]
Mutagenicity (Salmonella typhimurium): +
Tumorigen Activity [1]: -
Teratogen Activity [2]: -

ClC1=C(Cl)[C@]2(Cl)[C@@H]3[C@@H]4C[C@@H]([C@H]5O[C@@H]45)[C@@H]3[C@@]1(Cl)C2(Cl)Cl [Dieldrin]
Mutagenicity (Salmonella typhimurium): +
Tumorigen Activity [1]: +^e
Teratogen Activity [2]: +

CN(C)C=O [Dimethylformamide]
Mutagenicity (Salmonella typhimurium): +
Tumorigen Activity [1]: -
Teratogen Activity [2]: -

C[S+](C)[O-] [Dimethylsulfoxide]
Mutagenicity (Salmonella typhimurium): -
Tumorigen Activity [1]: -
Teratogen Activity [2]: +

O=C(O)CN(CCN(CC(=O)O)CC(=O)O)CC(=O)O [EDTA]
Mutagenicity (Salmonella typhimurium): -
Tumorigen Activity [1]: -
Teratogen Activity [2]: +

CCO [Ethanol]
Mutagenicity (Salmonella typhimurium): -
Tumorigen Activity [1]: -
Teratogen Activity [2]: +

CCOC(C)=O [Ethyl Acetate]
Mutagenicity (Salmonella typhimurium): -
Tumorigen Activity [1]: -
Teratogen Activity [2]: -

OCC(O)CO [Glycerol]
Tumorigen Activity [1]: -
Teratogen Activity [2]: -

CCOP(=S)(NC(C)C)Oc1ccccc1C(=O)OC(C)C (stereo not drawn) [Isofenphos (ind.), Isofenphos]
Mutagenicity (Salmonella typhimurium): -
Tumorigen Activity [1]: -
Teratogen Activity [2]: -
